Source: BindingDB's records for doi:10.1021/jm00222a039 (1978)
Blank lines part the entries; values can stand above or below the molecule they belong to.

Test: Inhibition of HMG-coA reductase in CD rat liver microsomal-cytosol fraction assessed as inhibition of fatty acid synthesis using [2-14C]acetate as substrate after 90 mins by scintillation counting analysis

Compound: CC(CCc1ccc2sc3ccccc3c2c1)CC(=O)O (configuration not stated)
IC50: 860 µM

Compound: CC(CC(=O)O)CC(=O)c1ccc(Sc2ccccc2)cc1 (configuration not stated)
IC50: 780 µM

Compound: CC(CC(=O)O)CC(=O)c1ccc2sc3ccccc3c2c1 (configuration not stated)
IC50: 930 µM

Compound: CC(CC(=O)O)CC(=O)c1ccc(Oc2ccccc2)cc1 (configuration not stated)
IC50: 2100 µM

Compound: CC(CC(=O)O)CC(=O)c1ccc(-c2ccccc2)cc1 (configuration not stated)
IC50: 1200 µM

Compound: CC(CCc1ccc2oc3ccccc3c2c1)CC(=O)O (configuration not stated)
IC50: 1600 µM

These reach a lower IC50. Values come first.

IC50: 430 µM
Compound: CC(CC(=O)O)CC(=O)c1ccc2oc3ccccc3c2c1 (configuration not stated)

IC50: 80 µM
Compound: CC(CCc1ccc(-c2ccccc2)cc1)CC(=O)O (configuration not stated)

IC50: 30 µM
Compound: CC(CCc1ccc2c(c1)-c1ccccc1S2(=O)=O)CC(=O)O (configuration not stated)

IC50: 100 µM
Compound: CC(CCc1ccc(Sc2ccccc2)cc1)CC(=O)O (configuration not stated)

IC50: 80 µM
Compound: CC(CCc1ccc(Oc2ccccc2)cc1)CC(=O)O (configuration not stated)

IC50: 80 µM
Compound: CC(CCc1ccc(S(=O)(=O)c2ccccc2)cc1)CC(=O)O (configuration not stated)
